The source of these data is patent publication US6030969A, “5,6,7-trisubstituted-4-aminopyrido[2,3-D] pyrimidine compounds” (Abbott Laboratories, priority 1998, dated 2000).

One assay concerns the target adenosine kinase (Homo sapiens, UniProt P55263). Description: Inhibition of adenosine kinase in vitro. To be noted: Table 1, read-out: IC50, Inhibition of Adenosine Kinase by Representative Compounds of the Invention. Format: biochemical. From the text: The adenosine kinase to be inhibited can be located in vitro, in situ or in vivo. Where the adenosine kinase is located in vitro, adenosine kinase is contacted with the inhibitor compound, typically by adding the compound to an aqueous solution containing the enzyme, radiolabeled substrate adenosine, magnesium chloride and ATP. The enzyme can exist in intact cells or in isolated subcellular fractions containing the enzyme. The enzyme is then maintained in the presence of the inhibitor for a period of time and under suitable physiological conditions. Means for determining maintenance times are well known in the art and depend inter alia on the concentrations of enzyme and the physiological conditions. Suitable physiological conditions are those necessary to maintain adenosine kinase viability and include temperature, acidity, tonicity and the like. Inhibition of adenosine kinase can be performed, by example, according to standard procedures well known in the art (Yamada, et al., Comp. Biochem. Physiol. 1982, 71B: 367-372). […] In vitro adenosine kinase activity can be measured using any of the standard procedures well known in the art. By way of example, cells containing adenosine kinase, such as IMR-32 human neuroblastoma cells, are cultured in the presence and absence of an inhibitor. Inhibition is measured as the ability to inhibit phosphorylation of endogenous or externally applied ^14 C-adenosine by these cells. The cells can be intact or broken. The specificity of adenosine kinase inhibitory activity is determined by studying the effects of inhibitors on adenosine A1 and A2α receptor binding, adenosine deaminase activity and adenosine transport. Numerous inhibitor compounds of the present invention were tested in vitro and found to inhibit adenosine kinase activity.

Assay [1] concerns male CF1 mice (hot plate analgesia). Put plainly: Mouse hot plate assay (hot plate test of analgesia). Format: in vivo. To be noted: 30 μmol/kg i.p., thirty minutes after pretreatment, 55° C. hot plate; vehicle alone 72.76±10.51 seconds. The method, then: The compounds of the invention were tested in vivo in the hot plate test of analgesia in mammals such as mice. […] Mouse Hot Plate Assay […] At the end of the pretreatment period, the mice are placed in an Omnitech Electronics Automated 16 Animal Hot Plate Analgesia Monitor (Columbus, Ohio; Model […]) in individual, 9.8×7.2×15.3 cm (l×w×h) plastic enclosures on top of a copper plate warmed to 55° C. […] sensors located near the top of each enclosure record beam crossings that occur as the mice jump off of the heated surface. Latency times for each jump are automatically recorded, and latency to both the first and tenth jumps are used for data analysis.
Background: In hot-plate and tail-flick tests a longer latency is read as antinociception.

Counter-ions that a name gives are not always drawn.

As a reminder, the IC50 is the concentration that inhibits the measured activity by half.

Chain of adenosine kinase (P55263 whole entry): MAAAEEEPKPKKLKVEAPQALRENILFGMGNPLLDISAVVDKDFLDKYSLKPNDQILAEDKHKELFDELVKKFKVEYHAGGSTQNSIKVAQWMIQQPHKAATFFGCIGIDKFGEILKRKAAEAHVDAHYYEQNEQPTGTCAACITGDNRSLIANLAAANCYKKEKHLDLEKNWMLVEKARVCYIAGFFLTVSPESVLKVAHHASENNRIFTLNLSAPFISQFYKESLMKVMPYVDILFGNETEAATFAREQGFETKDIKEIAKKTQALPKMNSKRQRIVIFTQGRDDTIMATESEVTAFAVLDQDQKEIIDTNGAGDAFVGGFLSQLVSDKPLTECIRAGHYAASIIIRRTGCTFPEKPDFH

Turning to `CCCCCc1c(-c2ccc(N(C)C)cc2)nc2ncnc(N)c2c1-c1ccc(F)c(Br)c1` [Example 1, 4-amino-5-(3-bromo-4-fluorophenyl)-6-pentyl-7-(4-(dimethylamino)phenyl)pyrido[2,3-d]pyrimidine], at adenosine kinase, the IC50 is 80 nM. As for `CCc1c(-c2cccs2)nc2ncnc(N)c2c1-c1cccc(Br)c1` [Example 4, 4-amino-5-(3-bromophenyl)-6-ethyl-7-(thiophen-2-yl)pyrido[2,3-d]pyrimidine], the concentration for half-maximal inhibition (IC50) at adenosine kinase was 3 nM. In the case of `COc1ccc(-c2c(-c3cccs3)nc3ncnc(N)c3c2-c2cccc(Br)c2)cc1OC` [Example 6, 4-amino-5-(3-bromophenyl)-6-(3,4-dimethoxyphenyl)-7-(thiophen-2-yl)pyrido[2,3-d]pyrimidine], at adenosine kinase, the IC50 was 1 nM.

With `CCOC(=O)Cc1c(-c2cccs2)nc2ncnc(N)c2c1-c1cccc(Br)c1` [Example 8, 4-amino-5-(3-bromophenyl)-6-ethoxycarbonylmethyl-7-(thiophen-2-yl)pyrido[2,3-d]pyrimidine hydrochloride], the half-inhibitory concentration (IC50) on adenosine kinase is 3 nM.

`COc1cccc(Cc2c(-c3cccs3)nc3ncnc(N)c3c2-c2cccc(Br)c2)c1` [Example 9, 4-amino-5-(3-bromophenyl)-6-(3-methoxyphenylmethyl)-7-(thiophen-2-yl)pyrido[2,3-d]pyrimidine hydrochloride]: the IC50 on adenosine kinase was 23 nM. With `COc1ccc(-c2c(-c3cccs3)nc3ncnc(N)c3c2-c2cc(Br)cs2)cc1OC` [Example 11, 4-amino-5-(4-bromothiophen-2-y)-6-(3,4-dimethoxyphenyl)-7-(thiophen-2-yl)pyrido[2,3-d]pyrimidine hydrochloride], at adenosine kinase, the IC50 was 0.3 nM. Still for that read-out and setting: the figure for `COc1ccc(-c2c(-c3cccs3)nc3ncnc(N)c3c2-c2cccc(Cl)c2)cc1OC` [Example 12, 4-amino-5-(3-chlorophenyl)-6-(3,4-dimethoxyphenyl)-7-(thiophen-2-yl)pyrido[2,3-d]pyrimidine hydrochloride] is 1 nM. For the compound `COCCN(C)c1ccc(-c2nc3ncnc(N)c3c(-c3cc(Br)cs3)c2-c2ccc(OC)c(OC)c2)cc1.Cl` [Example 19, 4-amino-5-(4-bromothiophen-2-yl)-6-(3,4-dimethoxyphenyl)-7-(4-(N-methyl-N-(2-methoxyethyl)amino)phenyl)pyrido [2,3-d]pyrimidine hydrochloride], the IC50 at adenosine kinase amounted to 0.1 nM. Moreover, the “latency to 10th jump” value in assay [1] worked out at 142.13 s. Regarding `CC(C)c1ccc(-c2c(-c3ccc(N(C)C)cc3)nc3ncnc(N)c3c2-c2ccc(C(C)C)cc2)cc1` [Example 25, 4-amino-5,6-(bis-4-(2-propyl)phenyl)-7-(4-dimethylaminophenyl)pyrido[2.3-d]pyrimidine], the IC50 on adenosine kinase was 4 nM. Take `COCCN(C)c1ccc(-c2nc3ncnc(N)c3c(-c3ccccc3)c2-c2ccccc2)cc1` [Example 26, 4-amino-5-phenyl-6-phenyl-7-(4-(N-methyl-N-(2-methoxyethyl)amino)phenyl)pyrido[2,3-d]pyrimidine hydrochloride]: the IC50 at adenosine kinase amounted to 5 nM. As for `CN(C)c1ccc(-c2nc3ncnc(N)c3c(-c3ccccc3)c2-c2ccccc2)cc1.Cl.Cl` [Example 27, 4-amino-5,6-diphenyl-7-(4-dimethylaminophenyl)pyrido [2,3-d]pyrimidine dihydrochloride], on adenosine kinase, the IC50 turned out to be 9 nM. For the same compound, the “latency to 10th jump” value in assay [1] is 154.86 s. For the compound `Nc1ncnc2nc(-c3ccc(N4CCOCC4)nc3)c(-c3ccc(F)cc3)c(-c3cccc(Br)c3)c12` [Example 39, 4-amino-5-(3-bromophenyl)-6-(4-fluorophenyl)-7-(6-morpholinyl-3-pyridinyl)pyrido[2,3-d]pyrimidine hydrochloride], the half-inhibitory concentration (IC50) on adenosine kinase was 5 nM.

For `Nc1ncnc2nc(-c3ccc(N4CCOCC4)nc3)c(-c3ccccc3)c(-c3ccccc3)c12` [Example 40, 4-amino-5-phenyl-6-phenyl-7-(6-morpholinyl-3-pyridinyl)pyrido [2,3-d]pyrimidine hydrochloride], the concentration for half-maximal inhibition (IC50) on adenosine kinase came out at 3 nM. As to `Nc1ncnc2nc(-c3ccc(N4CCOCC4)nc3)c(-c3ccccc3)c(-c3cccc(Br)c3)c12` [Example 41, 4-amino-5-(3-bromophenyl)-6-phenyl-7-(6-morpholinyl-3-pyridinyl)pyrido [2,3-d]pyrimidine hydrochloride], the IC50 at adenosine kinase worked out at 2 nM.
